Values of other authors, collected in patent publication US20040142823A1, “Adjuvant compositions and pesticides” (priority 2003, published 2004).
Where two headings read alike, the source gives them in different places.

SMILES: CNC(=O)CSP(=S)(OC)OC [Cygon, dimethoate]
- Time to lose 50 percent of pest control power (mixed in water of pH 9): 48 min
- Time to lose 50 percent of pest control power (pH of 6): 720 min
